Data on seven molecules can be found in article PMC6272846, “Synthesis and p38 Inhibitory Activity of Some Novel Substituted N,N′-Diarylurea Derivatives” (Molecules, 2016).

The target in experiment [1] is p38α mitogen-activated protein kinase (Homo sapiens, UniProt Q16539). Kind of experiment: Surface plasmon resonance (Biacore) binding to p38α. As to conditions: SPR, 25 °C. How it is done:
To assess the binding ability between the compounds and p38α protein, we used SPR for kinase inhibitor interaction studies.
The Biacore instrument uses a technique based on surface plasmon resonance to follow the real-time binding of compounds to immobilized proteins on a carboxymethyl dextran surface in a liquid milieu. Compounds were stored as 10 mM stock solutions in 100% dimethyl sulfoxide (DMSO). All light-sensitive compounds were handled under yellow protective light. […] ATP was dissolved directly in running buffer to make a 10 mM solution. The run was started with five start-up cycles in which running buffer was injected (instead of a sample) followed by sample injection cycles. Zero concentration samples were used as blanks. A typical analysis cycle consisted of a 60 s sample injection (30 μL/min), 120–200 s of buffer flow (dissociation phase), followed by a needle and tubing wash with 50% DMSO and buffer, and finally, a 30 s buffer injection to check for sample carry over. The flow cell temperature was 25 °C. Between sample series, a solvent correction cycle was run according to the instrument manual to adjust for referencing errors due to refractive index mismatches between running buffer and samples [35].

The subject of another experiment is MAPKAPK2. The experiment can be described thus: Inhibition of MAPKAPK2 in GFP-MAPKAPk2_BHK cell model (nuclear translocation). To be noted: GFP-MAPKAPk2_BHK cells. The format is cell-based. The protocol:
In order to study p38α inhibition in a cell system, we investigated the ability of all compounds to inhibit the phosphorylation of mitogen-activated protein-kinase-activated protein kinase 2 (MAPKAPK2). Each compound was prepared at […] concentrations (1, 3, 10 and 30 nM, 0.1 and 0.3 μM), and the percentages of inhibition were calculated from the numbers of cells after treatment with the different compounds.
GFP-MAPKAPk2_BHK cells were cultured in 96-well plates (2.0 × 10^4/100 μL/well) containing 10% heat-inactivated foetal bovine serum (FBS) and 1 mg/mL G418 at 37 °C in humidified air containing 5% CO2 for 18–24 h. The cells were washed with nutrient solution (100 μL/well) and changed to the compound liquid (100 μL/well). Experiments were set up with the control, and the compound was repeated at each concentration in three wells. The cells were cultured in 96-well plates at 37 °C in humidified air containing 5% CO2 for 90 min. The cells were washed with the dye solution (20 μL/well), and the dyed cells were held for 1 hour at room temperature in the dye liquid. Analysis of nuclear translocation and calculation of the ability of the compounds to inhibit nuclear translocation was performed using the IN Cell Analyzer 1000 Nuclear Trafficking Analysis Module System (GE, Madison, WI, USA). The cultured cells were treated with the obtained compounds in […] concentration grads (1, 3, 10 and 30 nM, 0.1 and 0.3 μM). The inhibitory percentage can be calculated using the amounts of cells after the disposition of the different compounds.

In a further experiment the target is MAPK14/p38α (Homo sapiens, UniProt Q16539). The experiment can be described thus: p38α MAP kinase activity, phosphorylation of ATF-2 (TR-FRET). The format is biochemical. As to conditions: enzyme, GFP-ATF2 substrate, 90 μM ATP. How it is done:
Kinase reaction buffer was composed of 50 mM HEPES (pH 7.5), 0.01% BRIJ-35, 10 mM MgCl2 and 1 mM EGTA. Prepared MAPK14/p38α in 1× kinase buffer with concentration at 500 ng/mL. A 2-fold serial dilution was performed using 1× kinase buffer from 500 ng/mL using 16 dose points. […] The reaction was started by adding 5 μL of the GFP-ATF2(19–96) substrate and ATP solution into each well of the assay plate. The final starting concentration of MAPK14/p38α was 250ng/ml, and the final GFP-ATF2 and ATP concentrations were 0.4 μM and 90 μM, respectively. The assay plate was sealed and incubated for 1 hour at room temperature (RT). Antibody solution (1 mL) was prepared from 20 mM EDTA and 4 nM Tb-antipATF2 (pThr71) antibody in TR-FRET dilution buffer. Antibody solution (10 μL) was added into each well of the assay plate and mixed gently. The final EDTA concentration was 10 mM, and the final Tb-antipATF2 (pThr71) concentration was 2 nM. The assay plate was sealed and incubated for 30 minutes at RT.
Inhibitor in 0.5% DMSO (2 μL/well) at 5-fold the final assay concentration was added into a 384-well assay plate. […] MAPK14/p38α (4 μL/well) was added to each well of the 384-well assay plate and incubated for 15 min at RT. To start the reaction, substrate GFP-ATF2 (19–96) and ATP (4 μL/well) were added into kinase reaction buffer. […] The resulting TR-FRET emission ratio was plotted against the concentration of inhibitor, and the data fitted to a sigmoidal dose-response curve with a variable slope. The IC50 concentration was calculated from the curve.

For experiment [2], the system named is TNF-α release from THP-1 cells. Kind of experiment: Inhibition of TNF-α release from THP-1 cells after LPS stimulation. The format is cell-based. As to conditions: Homo sapiens; LPS-stimulated THP-1 cells. The protocol: LPS stock was prepared at 1 mg/mL by adding 1 mL sterile endotoxin-free water to 1 mg LPS powder. The LPS stock was aliquoted and stored at −20 °C. […] An amount of 100 K THP-1 cells were seeded into a 96-well cell culture plate in 100 μL of test medium. […] A total of 10 μL compound was added to the plate with cells, and the cells were incubated for 1 hour at 37 °C. An amount of 10 μL/well LPS was added to stimulate the cells. The final LPS concentration was 300 ng/mL, and the DMSO concentration was 0.3%. […]. The plate was incubated for 5 hours at 37 °C. […] Three replicates were used for each dose. At the 5th hour, the TNF-α in the supernatants and standard curve samples was determined using the HTRF kit. […] Amounts of 5 μL Anti-TNF-α-Cryptate (Invitrogen, Carlsbad, CA, USA) and 5 μL Anti-TNFα-XL665 (Invitrogen) were added, and the plate was incubated at RT for 15 h. The plate was read on an Envision instrument (PerkinElmer) and the IC50 was calculated.

Experiment [3] relates to TNF-α production, human whole blood. Details: method as in PMID 11896401. To be noted: read-out: IC50, inhibition of LPS-induced TNF-α production; cited from earlier work.
Another experiment concerns TNF-α production. Details: method as in PMID 11896401. As to conditions: 30 mg/kg p.o.; cited from earlier work.

Chain of p38α mitogen-activated protein kinase (Q16539 whole entry): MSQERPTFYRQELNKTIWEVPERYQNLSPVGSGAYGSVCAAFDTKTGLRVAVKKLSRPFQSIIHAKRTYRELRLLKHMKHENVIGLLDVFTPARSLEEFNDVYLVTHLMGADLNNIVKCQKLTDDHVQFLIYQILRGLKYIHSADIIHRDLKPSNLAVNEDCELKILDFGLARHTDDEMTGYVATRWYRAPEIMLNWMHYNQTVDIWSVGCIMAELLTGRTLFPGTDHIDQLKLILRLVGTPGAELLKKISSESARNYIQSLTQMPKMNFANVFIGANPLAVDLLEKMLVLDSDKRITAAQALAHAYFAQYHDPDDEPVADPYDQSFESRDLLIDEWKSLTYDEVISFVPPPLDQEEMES
Chain of MAPK14/p38α (Q16539 whole entry): as above

Take `CC(C)(C)c1cc(NC(=O)NCc2ccccc2Oc2ccc3[nH]ncc3c2)n(-c2ccccc2)n1` [25b, 1-(2-((1H-Indazol-5-yl)oxy)benzyl)-3-(3-(tert-butyl)-1-phenyl-1H-pyrazol-5-yl)urea]: the Kd in experiment [1] amounted to 382 nM. The half-inhibitory concentration (IC50) in the experiment with MAPKAPK2 was 2.45 ± 0.59 nM; on MAPK14/p38α, 0.8 ± 0.03 nM; in experiment [2], 1 ± 0.09 nM.

With `Cc1ccc(-n2nc(C(C)(C)C)cc2NC(=O)Nc2ccc(OCCN3CCOCC3)c3ccccc23)cc1` [BIRB-796, 1-(5-tert-butyl-2-p-tolyl-2h-pyrazol-3-yl)-3-[4-(2-morpholin-4-yl-ethoxy)naph-thalen-1-yl]urea], the concentration for half-maximal inhibition (IC50) in experiment [3] was 780 nM. The “inhibition of LPS-induced TNF-α production in mice in vivo” value with TNF-α production is 84%.

As for `Cc1ccc(-n2nc(C(C)(C)C)cc2NC(=O)NCc2ccccc2Oc2ccc3[nH]ncc3c2)cc1` [25a, 1-(2-((1H-Indazol-5-yl)oxy)benzyl)-3-(3-(tert-butyl)-1-(p-tolyl)-1H-pyrazol-5-yl)urea], in experiment [1], the dissociation constant (Kd) came to 15.4 nM. Also, the IC50 in the experiment with MAPKAPK2 came out at 1.36 ± 0.31 nM; against MAPK14/p38α, 0.47 ± 0.02 nM; in experiment [2], 0.73 ± 0.13 nM.

In the case of `CC(C)(C)c1cc(NC(=O)NCc2ccccc2Oc2ccc3[nH]ncc3c2)n(-c2ccc([N+](=O)[O-])cc2)n1` [25h, 1-(2-((1H-Indazol-5-yl)oxy)benzyl)-3-(3-(tert-butyl)-1-(4-nitrophenyl)-1H-pyrazol-5-yl)urea], in experiment [1], the Kd is 221 nM. For the same molecule, the results for the IC50 (in the experiment on MAPKAPK2; at MAPK14/p38α; in experiment [2]) were 2.64 ± 0.56 nM, 0.82 ± 0.01 nM and 1.79 ± 0.48 nM, respectively.

`Cc1cccc(-n2nc(C(C)(C)C)cc2NC(=O)NCc2ccccc2Oc2ccc3[nH]ncc3c2)c1` [25c, 1-(2-((1H-Indazol-5-yl)oxy)benzyl)-3-(3-(tert-butyl)-1-(m-tolyl)-1H-pyrazol-5-yl)urea] showed a Kd in experiment [1] of 421 nM. For the same molecule, the concentration for half-maximal inhibition (IC50) was found to be 6.6 ± 0.66 nM with MAPKAPK2, 0.77 ± 0.08 nM on MAPK14/p38α and 1.06 ± 0.05 nM in experiment [2].

Consider `COc1ccc(-n2nc(C(C)(C)C)cc2NC(=O)NCc2ccccc2Oc2ccc3[nH]ncc3c2)cc1` [25d, 1-(2-((1H-Indazol-5-yl)oxy)benzyl)-3-(3-(tert-butyl)-1-(4-methoxyphenyl)-1H-pyrazol-5-yl)urea], for which the half-inhibitory concentration (IC50) is 5.45 ± 0.43 nM in the experiment on MAPKAPK2, 1.22 ± 0.32 nM against MAPK14/p38α and 1.43 ± 0.07 nM in experiment [2].

With `CC(C)(C)c1cc(NC(=O)NCc2ccccc2Oc2ccc3c(c2)CCCC3O)n(-c2ccccc2)n1` (stereo not drawn) [27c, 1-(3-(tert-Butyl)-1-phenyl-1H-pyrazol-5-yl)-3-(2-((5-hydroxy-5,6,7,8-tetrahydronaphthalen-2-yl)oxy)-benzyl)urea], the IC50 was found to be 124 ± 6.64 nM with MAPKAPK2, 3.73 ± 0.32 nM against MAPK14/p38α and 18.4 ± 4.35 nM in experiment [2].
